Measured values: patent US8338450B2, “Compounds as dipeptidyl peptidase IV (DPP IV) inhibitors” (Lupin Limited, priority 2007, dated 2012)
Structures can show the parent of a compound that is named as a salt. Where two headings read alike, the source gives them in different places.

Molecular target: T1, human recombinant DPP-IV (Homo sapiens, UniProt P27487)
T1 construct: purchased R&D Systems, USA (or produced in-house)
Test: Inhibition of human recombinant DPP-IV (Gly-Pro-AMC hydrolysis, fluorometric)
Type: biochemical
Settings: for % inhibition at 10 nM: compound 10 nM; for IC50: human recombinant DPP-IV, 50 μM Gly-Pro-AMC, 30 min at 30° C.; for % inhibition at 100 nM: compound 100 nM; for inhibition at 1 µM: read-out: % inhibition at 1000 nM
Procedure: Inhibition of Human Recombinant DPP-IV
The proteolytic activity of human recombinant DPP-IV was determined by following the hydrolysis of Gly-Pro-7-amino-4-methylcoumarin (Gly-Pro-AMC) and the fluorometric quantitation of the liberated AMC. Assays were routinely carried out in 96-well flat-bottom black microwell plates. The reaction mixture (100 μl) contained 10 ng of human recombinant DPP-IV enzyme (produced in-house or procured from R&D Systems, USA) in the assay buffer (25 mM Tris-HCl, pH 7.4, 140 mM NaCl, 10 mM KCl and 0.1 mg/ml BSA) and 50 μM Gly-Pro-AMC. After incubation of assay plates at 30° C. for 30 min, the hydrolysis of Gly-Pro-AMC was monitored in a fluorescence microplate reader (Molecular Devices SpectraMax M5), with excitation and emission wavelengths set at 360 nm and 460 nm, respectively.
The inhibition of DPP-IV activity by test compounds was routinely performed by preincubating the enzyme with test compound (10 and 100 nM for primary screening and 8 concentrations from 0.1 to 1000 nM for the dose-response study) or vehicle (0.01% DMSO) for 15 min at 30° C., in a total volume of 90 μl. Test compounds were dissolved in DMSO at a concentration of 10 mM and serially diluted further in assay buffer. The enzyme reaction was initiated by the addition of Gly-Pro-AMC, followed by incubation of assay plates for 30 min at 30° C. and the liberated AMC was measured as described above. A known inhibitor of DPP-IV (positive control) was always included in the assay. Test compounds at various concentrations were always evaluated in duplicate, along with substrate blanks, vehicle controls and positive controls.
The results are expressed as percent inhibition of the enzyme activity relative to vehicle controls. Dose-response studies were conducted for those compounds exerting ≧50% inhibition of activity at 10 nM in primary screening. IC50, defined as the inhibitor concentration which caused a 50% decrease of the activity under assay conditions, was computed using GraphPad Prism software, version 5.0.
The DPP-IV inhibition data (expressed either as IC50 in nanomolar or percent inhibition at a particular compound concentration) is presented in Table 1.

T1 sequence (P27487 whole entry): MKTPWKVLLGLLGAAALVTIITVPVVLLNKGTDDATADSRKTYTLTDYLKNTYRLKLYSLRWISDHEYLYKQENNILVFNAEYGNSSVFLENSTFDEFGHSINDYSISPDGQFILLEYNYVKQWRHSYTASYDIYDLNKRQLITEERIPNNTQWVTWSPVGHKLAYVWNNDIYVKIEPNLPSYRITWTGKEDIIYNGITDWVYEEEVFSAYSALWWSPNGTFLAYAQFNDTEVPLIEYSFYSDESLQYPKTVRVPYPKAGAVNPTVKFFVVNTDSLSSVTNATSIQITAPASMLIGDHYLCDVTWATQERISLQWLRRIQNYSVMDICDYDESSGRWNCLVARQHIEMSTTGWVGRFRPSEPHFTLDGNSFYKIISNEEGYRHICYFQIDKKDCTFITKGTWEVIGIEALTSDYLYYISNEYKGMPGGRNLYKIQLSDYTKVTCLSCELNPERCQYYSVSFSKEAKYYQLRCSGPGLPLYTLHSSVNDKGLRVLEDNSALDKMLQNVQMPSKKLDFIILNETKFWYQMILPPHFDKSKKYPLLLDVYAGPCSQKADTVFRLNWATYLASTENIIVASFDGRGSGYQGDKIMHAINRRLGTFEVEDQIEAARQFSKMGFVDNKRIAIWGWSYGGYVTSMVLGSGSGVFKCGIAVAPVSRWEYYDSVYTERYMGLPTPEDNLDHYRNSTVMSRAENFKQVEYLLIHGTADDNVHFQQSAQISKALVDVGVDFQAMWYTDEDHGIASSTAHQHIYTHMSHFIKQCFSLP

| SMILES | % inhibition at 10 nM (relative to vehicle controls) | IC50 | also measured |
| --- | --- | --- | --- |
| N#C[C@H]1C[C@H]2C[C@H]2N1C(=O)[C@H](N)C1CC2CCC(C1)N2C(=O)c1ccnc(F)c1.O=C(O)C(F)(F)F (stereo partly drawn) [Compound 30, (1R,3R,5R)-2-{(2R)-2-Amino-2-[8-(2-fluoropyridine-4-carbonyl)-8-aza-bicyclo[3.2.1]oct-3-yl]-exo-ethanoyl}-2-azabicyclo[3.1.0]hexane-3-carbonitrile trifluoroacetic acid salt] | 0% inhibition at 10 nM | – | – |
| N#C[C@@H]1C[C@@H]2C[C@@H]2N1C(=O)[C@H](N)C1CC2CCC(C1)N2C(=O)c1ccnc(F)c1.O=C(O)C(F)(F)F (stereo partly drawn) [Compound 31, (1S,3S,5S)-2-{(2R)-2-Amino-2-[8-(2-fluoropyridine-4-carbonyl)-8-aza-bicyclo[3.2.1]oct-3-yl]-exo-ethanoyl}-2-azabicyclo[3.1.0]hexane-3-carbonitrile trifluoroacetic acid salt] | 6% inhibition at 10 nM | – | – |
| N#C[C@@H]1C[C@@H]2C[C@@H]2N1C(=O)[C@@H](N)C1CC2CCC(C1)N2C(=O)c1cccnc1F (stereo partly drawn) [Compound 32, (1S,3S,5S)-2-{(2S)-2-Amino-2-[8-(2-fluoropyridine-3-carbonyl)-8-aza-bicyclo[3.2.1]oct-3-yl]-exo-ethanoyl}-2-azabicyclo[3.1.0]hexane-3-carbonitrile trifluoroacetic acid salt] | – | 6.84 nM | – |
| N#C[C@@H]1C[C@@H]2C[C@@H]2N1C(=O)[C@@H](N)C1CC2CCC(C1)N2C(=O)c1cccnc1 (stereo partly drawn) [Compound 33, (1S,3S,5S)-2-{(2S)-2-Amino-2-[8-(pyridine-3-carbonyl)-8-aza-bicyclo[3.2.1]oct-3-yl]-exo-ethanoyl}-2-azabicyclo[3.1.0]hexane-3-carbonitrile di trifluoroacetic acid salt] | – | 9.43 nM | – |
| N#C[C@@H]1C[C@@H]2C[C@@H]2N1C(=O)[C@@H](N)C1CC2CCC(C1)N2C(=O)c1cccs1 (stereo partly drawn) [Compound 34, (1S,3S,5S)-2-{(2S)-2-Amino-2-[8-(thiophene-2-carbonyl)-8-aza-bicyclo[3.2.1]oct-3-yl]-exo-ethanoyl}-2-azabicyclo[3.1.0]hexane-3-carbonitrile trifluoroacetic acid salt] | – | 12.9 nM | – |
| N#C[C@@H]1C[C@@H]2C[C@@H]2N1C(=O)[C@H](N)C1CC2CCC(C1)N2C(=O)c1cnccn1.O=C(O)C(F)(F)F (stereo partly drawn) [Compound 36, (1S,3S,5S)-2-{(2R)-2-Amino-2-[8-(pyrazine-2-carbonyl)-8-aza-bicyclo[3.2.1]oct-3-yl]-exo-ethanoyl}-2-azabicyclo[3.1.0]hexane-3-carbonitrile trifluoroacetic acid salt] | 17% inhibition at 10 nM | – | – |
| N#C[C@H]1C[C@H]2C[C@H]2N1C(=O)[C@@H](N)C1CC2CCC(C1)N2C(=O)c1cnccn1.O=C(O)C(F)(F)F (stereo partly drawn) [Compound 37, (1R,3R,5R)-2-{(2S)-2-Amino-2-[8-(pyrazine-2-carbonyl)-8-aza-bicyclo[3.2.1]oct-3-yl]-exo-ethanoyl}-2-azabicyclo[3.1.0]hexane-3-carbonitrile trifluoroacetic acid salt] | 7% inhibition at 10 nM | – | – |
| N#C[C@H]1C[C@H]2C[C@H]2N1C(=O)[C@H](N)C1CC2CCC(C1)N2C(=O)c1cnccn1.O=C(O)C(F)(F)F (stereo partly drawn) [Compound 38, (1R,3R,5R)-2-{(2R)-2-Amino-2-[8-(pyrazin-2-carbonyl)-8-aza-bicyclo[3.2.1]oct-3-yl]-exo-ethanoyl}-2-azabicyclo[3.1.0]hexane-3-carbonitrile trifluoroacetic acid salt] | – | – | % inhibition at 100 nM (relative to vehicle controls): 16% inhibition at 100 nM |
| N#C[C@@H]1C[C@@H]2C[C@@H]2N1C(=O)[C@@H](N)C1CC2CCC(C1)N2C(=O)c1ccccn1 (stereo partly drawn) [Compound 39, (1S,3S,5S)-2-{(2S)-2-Amino-2-[8-(pyridine-2-carbonyl)-8-aza-bicyclo[3.2.1]oct-3-yl]-exo-ethanoyl}-2-azabicyclo[3.1.0]hexane-3-carbonitrile trifluoroacetic acid salt] | – | 11.7 nM | – |
| N#C[C@@H]1C[C@@H]2C[C@@H]2N1C(=O)[C@@H](N)C1CC2CCC(C1)N2C(=O)c1ccco1.O=C(O)C(F)(F)F (stereo partly drawn) [Compound 40, (1S,3S,5S)-2-{(2S)-2-Amino-2-[8-(furan-2-carbonyl)-8-aza-bicyclo[3.2.1]oct-3-yl]-exo-ethanoyl}-2-azabicyclo[3.1.0]hexane-3-carbonitrile trifluoroacetic acid salt] | 44% inhibition at 10 nM | – | – |
| N#C[C@@H]1C[C@@H]2C[C@@H]2N1C(=O)[C@@H](N)C1CC2CCC(C1)N2C(=O)c1ccncc1F (stereo partly drawn) [Compound 41, (1S,3S,5S)-2-{(2S)-2-Amino-2-[8-(3-fluoropyridine-4-carbonyl)-8-aza-bicyclo[3.2.1]oct-3-yl]-exo-ethanoyl}-2-azabicyclo[3.1.0]hexane-3-carbonitrile trifluoroacetic acid salt] | – | 4.92 nM | – |
| N#C[C@@H]1C[C@@H]2C[C@@H]2N1C(=O)[C@@H](N)C1CC2CCC(C1)N2S(=O)(=O)c1cc(F)cc(F)c1 (stereo partly drawn) [Compound 42, (1S,3S,5S)-2-{(2S)-2-Amino-2-[8-(3,5-difluorobenzenesulfonyl)-8-aza-bicyclo[3.2.1]oct-3-yl]-exo-ethanoyl}-2-azabicyclo[3.1.0]hexane-3-carbonitrile trifluoroacetic acid salt] | – | 9 nM | – |
| N#C[C@@H]1C[C@@H]2C[C@@H]2N1C(=O)[C@@H](N)C1CC2CCC(C1)N2C(=O)C12CC3CC(CC(C3)C1)C2.O=C(O)C(F)(F)F (stereo partly drawn) [Compound 43, (1S,3S,5S)-2-{(2S)-2-Amino-2-[8-(adamantane-1-carbonyl)-8-aza-bicyclo[3.2.1]oct-3-yl]-exo-ethanoyl}-2-azabicyclo[3.1.0]hexane-3-carbonitrile trifluoroacetic acid salt] | – | – | % inhibition at 100 nM (relative to vehicle controls): 49% inhibition at 100 nM |
| N#C[C@@H]1C[C@@H]2C[C@@H]2N1C(=O)[C@@H](N)C1CC2CCC(C1)N2C(=O)c1ccc2c(c1)OCO2 (stereo partly drawn) [Compound 44, (1S,3S,5S)-2-{(2S)-2-Amino-2-[8-(benzo[1,3]-dioxole-5-carbonyl)-8-aza-bicyclo[3.2.1]oct-3-yl]-exo-ethanoyl}-2-azabicyclo[3.1.0]-hexane-3-carbonitrile trifluoroacetic acid salt] | – | 2.4 nM | – |
| NC(=O)[C@@H]1C[C@@H]2C[C@@H]2N1C(=O)[C@@H](N)C1CC2CCC(C1)N2C(=O)c1ccc2c(c1)OCO2 (stereo partly drawn) [Compound 45, (1S,3S,5S)-2-{(2S)-2-Amino-2-[8-(benzo-[1,3]dioxole-5-carbonyl)-8-aza-bicyclo[3.2.1]oct-3-yl]-exo-ethanoyl}-2-azabicyclo[3.1.0]-hexane-3-carboxamide trifluoro acetic acid salt] | – | – | inhibition at 1 µM: 12% |
| N[C@H](C(=O)N1[C@H](C(=O)O)C[C@@H]2C[C@@H]21)C1CC2CCC(C1)N2C(=O)c1ccc2c(c1)OCO2 (stereo partly drawn) [Compound 46, (1S,3S,5S)-2-{(2S)-2-Amino-2-[8-(benzo[1,3]-dioxole-5-carbonyl)-8-aza-bicyclo[3.2.1]-oct-3-yl]-exo-ethanoyl}-2-azabicyclo[3.1.0]hexane-3-carboxylic acid hydrochloride] | – | – | inhibition at 1 µM (compound 1000 nM, relative to vehicle controls): 13% |
| N#C[C@@H]1C[C@@H]2C[C@@H]2N1C(=O)[C@@H](N)C1CC2CCC(C1)N2CCC(F)(F)F.O=C(O)C(F)(F)F (stereo partly drawn) [Compound 47, (1S,3S,5S)-2-{(2S)-2-Amino-2-[8-(3,3,3-trifluoropropyl)-8-aza-bicyclo[3.2.1]oct-3-yl]-exo-ethanoyl}-2-azabicyclo[3.1.0]hexane-3-carbonitrile trifluoroacetic acid salt] | 29% inhibition at 10 nM | – | – |
| N#C[C@@H]1C[C@@H]2C[C@@H]2N1C(=O)[C@@H](N)C1CC2CCC(C1)N2CC1CCCCC1.O=C(O)C(F)(F)F (stereo partly drawn) [Compound 48, (1S,3S,5S)-2-{(2S)-2-Amino-2-[8-(cyclohexylmethyl)-8-aza-bicyclo[3.2.1]oct-3-yl]-exo-ethanoyl}-2-azabicyclo-[3.1.0]hexane-3-carbonitrile trifluoroacetic acid salt] | 22% inhibition at 10 nM | – | – |
| N#C[C@@H]1C[C@@H]2C[C@@H]2N1C(=O)[C@@H](N)C1CC2CCC(C1)N2CC12CC3CC(CC(C3)C1)C2.O=C(O)C(F)(F)F (stereo partly drawn) [Compound 49, (1S,3S,5S)-2-{(2S)-2-Amino-2-[8-(adamantan-1-ylmethyl)-8-aza-bicyclo[3.2.1]oct-3-yl]-exo-ethanoyl}-2-azabicyclo[3.1.0]hexane-3-carbonitrile trifluoroacetic acid salt] | – | – | % inhibition at 100 nM (relative to vehicle controls): 60% inhibition at 100 nM |
